Measurements taken from ChEMBL document CHEMBL3421576, “N-((1,3-Diphenyl-1H-pyrazol-4-yl)methyl)anilines: A novel class of anti-RSV agents” (Bioorg Med Chem Lett, 2015).

Columns and labels:
[1] = tested on: Bovine viral diarrhea virus 1; assay: Antiviral activity against BVDV infected in bovine MDBK cells assessed as protection against viral-induced cytopathogenecity after 3 to 4 days by MTT method; type: functional, organism-based; conditions: Bovine viral diarrhea virus isolates and strains, MDBK
[2] = tested on: Mammalian orthoreovirus 1; assay: Antiviral activity against Reovirus 1 infected in hamster BHK21 cells assessed as protection against viral-induced cytopathogenecity after 3 to 4 days by MTT method; type: functional, cell-based; conditions: Mammalian orthoreovirus 1, BHK-21
Yellow fever virus = assay: Antiviral activity against YFV infected in hamster BHK21 cells assessed as protection against viral-induced cytopathogenecity after 3 to 4 days by MTT method; type: functional, organism-based, BHK-21; conditions: Yellow fever virus, BHK-21
[3] = Cytotoxicity against hamster BHK21 cells assessed as cell viability after 72 hrs by MTT method; type: cell-based, Mesocricetus auratus, BHK-21
[4] = tested on: Vesicular stomatitis virus; assay: Antiviral activity against VSV infected in African green monkey Vero 76 cells after 2 days by plaque reduction assay; type: functional, organism-based; conditions: Vesicular stomatitis virus, Vero, 48 h
[5] = Cytotoxicity against bovine MDBK cells assessed as cell viability after 72 hrs by MTT method; type: cell-based, Bos taurus; conditions: cattle
Vaccinia virus = assay: Antiviral activity against Vaccinia virus infected in African green monkey Vero 76 cells after 3 days by plaque reduction assay; type: functional, organism-based, Orthopoxvirus vaccinia; conditions: Orthopoxvirus vaccinia, Vero, 72 h
[6] = Cytotoxicity against African green monkey Vero 76 cells assessed as cell viability after 48 to 96 hrs by MTT method; type: cell-based; conditions: chlorocebus sabaeus, Vero 76 cells
Coxsackievirus B5 = assay: Antiviral activity against Coxsackievirus B5 infected in African green monkey Vero 76 cells after 3 days by plaque reduction assay; type: functional, organism-based; conditions: Enterovirus B, Vero, 72 h
[7] = tested on: Respiratory syncytial virus; assay: Antiviral activity against RSV infected in African green monkey Vero 76 cells after 5 days by plaque reduction assay; type: functional, organism-based; conditions: human respiratory syncytial virus, Vero, 120 h
[8] = tested on: Human immunodeficiency virus 1; assay: Antiviral activity against HIV1 infected in human MT4 cells assessed as protection against viral-induced cytopathogenecity after 4 days by MTT method; type: functional, organism-based; conditions: Human immunodeficiency virus 1, MT4, 96 h
[9] = Selectivity index, ratio of CC50 for bovine MDBK cells to EC50 for BVDV infected in bovine MDBK cells
Human alphaherpesvirus 1 = assay: Antiviral activity against HSV1 infected in African green monkey Vero 76 cells after 3 days by plaque reduction assay; type: functional, organism-based; conditions: Human alphaherpesvirus 1, Vero, 72 h
[10] = Cytotoxicity against human MT4 cells assessed as cell viability after 96 hrs by MTT method; type: cell-based
[11] = Selectivity index, ratio of CC50 for African green monkey Vero 76 cells to EC50 for RSV infected in African green monkey Vero 76 cells
Enterovirus C = assay: Antiviral activity against Poliovirus Sb-1 infected in African green monkey Vero 76 cells after 2 days by plaque reduction assay; type: functional, organism-based; conditions: Enterovirus C, Sb-1, Vero, 48 h
[12] = Selectivity index, ratio of CC50 for hamster BHK21 cells to EC50 for YFV infected in hamster BHK21 cells; parameters: species or system BHK-21

For `Clc1ccc(NCc2cn(-c3ccccc3)nc2-c2ccc(Cl)cc2)cc1`, the EC50 [1] was 31 µM, the EC50 [2] was greater than 73 µM and the EC50 (Yellow fever virus) was greater than 73 µM. It also gave a CC50 at 72 h [3] of 73 µM, an EC50 [4] greater than 90 µM and a CC50 at 72 h [5] greater than 100 µM. For the same compound, the EC50 (Vaccinia virus) was greater than 90 µM, the CC50 [6] was 90 µM and the EC50 (Coxsackievirus B5) was greater than 90 µM. For the same compound, the EC50 [7] was 13 µM, the EC50 [8] was greater than 100 µM and the “Ratio CC50/EC50” value [9] was greater than 3.2. The EC50 (Human alphaherpesvirus 1) was greater than 90 µM, the CC50 at 96 h [10] was greater than 100 µM and the “Ratio CC50/EC50” value [11] was 6.9. The EC50 (Enterovirus C) was greater than 90 µM.
In the case of `Brc1ccc(NCc2cn(-c3ccccc3)nc2-c2ccccc2)cc1`, the EC50 [1] is reported as 31 µM, the EC50 [2] is reported as greater than 100 µM and the EC50 (Yellow fever virus) is reported as 32 µM. For the same compound, the CC50 at 72 h [3] was greater than 100 µM, the “Ratio CC50/EC50” value [12] was greater than 3.1 and the EC50 [4] was greater than 52 µM. It also gave a CC50 at 72 h [5] greater than 100 µM, an EC50 (Vaccinia virus) greater than 52 µM and a CC50 [6] of 52 µM. It also gave an EC50 (Coxsackievirus B5) greater than 52 µM, an EC50 [7] of 9 µM and an EC50 [8] greater than 100 µM. The “Ratio CC50/EC50” value [9] was greater than 3.2, the EC50 (Human alphaherpesvirus 1) was greater than 52 µM and the CC50 at 96 h [10] was greater than 100 µM. The “Ratio CC50/EC50” value [11] was 5.8 and the EC50 (Enterovirus C) was greater than 52 µM.
With `Clc1ccc(NCc2cn(-c3ccccc3)nc2-c2ccccc2)cc1` the EC50 [1] was 29 µM, the EC50 [2] was greater than 100 µM and the EC50 (Yellow fever virus) was 29 µM. The CC50 at 72 h [3] was greater than 100 µM, the EC50 [4] was greater than 65 µM and the CC50 at 72 h [5] was greater than 100 µM. For the same compound, the EC50 (Vaccinia virus) was greater than 65 µM, the CC50 [6] was 65 µM and the EC50 (Coxsackievirus B5) was greater than 65 µM. The EC50 [7] was 6 µM, the EC50 [8] was greater than 100 µM and the “Ratio CC50/EC50” value [9] was greater than 3.4. The EC50 (Human alphaherpesvirus 1) was greater than 65 µM, the CC50 at 96 h [10] was greater than 100 µM and the “Ratio CC50/EC50” value [11] was 10.8. It also gave an EC50 (Enterovirus C) greater than 65 µM.
`Cc1ccc(NCc2cn(-c3ccccc3)nc2-c2ccccc2)cc1` showed an EC50 [1] of 53 µM, an EC50 [2] greater than 100 µM and an EC50 (Yellow fever virus) of 65 µM. For the same compound, the CC50 at 72 h [3] was greater than 100 µM, the “Ratio CC50/EC50” value [12] was greater than 1.5 and the EC50 [4] was greater than 100 µM. It also gave a CC50 at 72 h [5] greater than 100 µM, an EC50 (Vaccinia virus) greater than 100 µM and a CC50 [6] greater than 100 µM. The EC50 (Coxsackievirus B5) was greater than 100 µM, the EC50 [7] was 28 µM and the EC50 [8] was greater than 100 µM. The “Ratio CC50/EC50” value [9] was greater than 1.9, the EC50 (Human alphaherpesvirus 1) was greater than 100 µM and the CC50 at 96 h [10] was greater than 100 µM. For the same compound, the “Ratio CC50/EC50” value [11] was greater than 3.6 and the EC50 (Enterovirus C) was greater than 100 µM.
Work on `Cc1ccc(NCc2cn(-c3ccccc3)nc2-c2ccc(C(F)(F)F)cc2)cc1` yielded an EC50 [1] of 54 µM, an EC50 [2] greater than 88 µM and an EC50 (Yellow fever virus) greater than 88 µM. The CC50 at 72 h [3] was 88 µM, the EC50 [4] was greater than 82 µM and the CC50 at 72 h [5] was greater than 100 µM. For the same compound, the EC50 (Vaccinia virus) was greater than 82 µM, the CC50 [6] was 82 µM and the EC50 (Coxsackievirus B5) was greater than 82 µM. For the same compound, the EC50 [7] was 25 µM, the EC50 [8] was greater than 100 µM and the “Ratio CC50/EC50” value [9] was greater than 1.8. For the same compound, the EC50 (Human alphaherpesvirus 1) was greater than 82 µM, the CC50 at 96 h [10] was greater than 100 µM and the “Ratio CC50/EC50” value [11] was 3.3. It also gave an EC50 (Enterovirus C) greater than 82 µM.
